Patent US12233036B2, “Inhibitors of autophagy and DCAR-1 as novel anthelmintic agents” (FLORIDA ATLANTIC UNIVERSITY BOARD OF TRUSTEES, priority 2019, dated 2025)

Test system: wild type C. elegans
Test: Pheromone-induced dauer formation in wild type C. elegans in the presence of DHCA
Format: in vivo
Settings: wild type (N2) C. elegans treated by pheromone, pheromone alone around 20% dauer
Experimental: FIG. 5 is a bar graph showing that dihydrocaffeic acid (DHCA) is the ligand for DCAR-1 GPCR. DHCA is the food signal that competes with the dauer-inducing pheromone to suppress dauer formation. (*P<0.01, t-test, N2 treated with 0 nM DHCA compared to N2 treated with 25 nM DHCA and N2 treated with 25 nM DHCA compared to N2 treated with 100 nM DHCA. ns, no statistical significant difference.) Recovery of dauer larvae requires the presence of food. G protein-coupled receptors (GPCRs) detect molecules such as food odors and activate internal signal transduction pathways. We identified a GPCR, DCAR-1, which is involved in detection of food signals in C. elegans. […] The recovery percentage of daf-2 and daf-7 mutant dauer larvae decreased by 25% when dcar-1 is mutated. Dihydrocaffeic acid (DHCA) is the ligand for DCAR-1. […] When wild type C. elegans was treated by pheromone, around 20% of animals entered dauer. However, in the presence of 25 nM DHCA, the percentage of dauer was decreased to 5%. […] Thus, DCAR-1 inhibitors act to block detection of foods signals by infective nematode parasites and to suppress the growth of parasites to adults.

## O=C(O)CCc1ccc(O)c(O)c1 [DHCA, Dihydrocaffeic acid]
25 nM DHCA
  percentage of dauer: 5%
100 nM DHCA
  percentage of dauer: none of animals formed dauer
